Assays:
Type in all cases: binding
[1] = target: kinases (KINOMEscan panel) (Homo sapiens, UniProt P10721, D816H); details: NEW KINOMEscan
[2] = target: kinases (KINOMEscan panel) (Homo sapiens, UniProt P04049); details: RAF1; NEW KINOMEscan
[3] = target: T1, kinases (KINOMEscan panel) (Homo sapiens, UniProt Q08881); details: kinase ITK; NEW KINOMEscan
T1 sequence (Q08881 1-620): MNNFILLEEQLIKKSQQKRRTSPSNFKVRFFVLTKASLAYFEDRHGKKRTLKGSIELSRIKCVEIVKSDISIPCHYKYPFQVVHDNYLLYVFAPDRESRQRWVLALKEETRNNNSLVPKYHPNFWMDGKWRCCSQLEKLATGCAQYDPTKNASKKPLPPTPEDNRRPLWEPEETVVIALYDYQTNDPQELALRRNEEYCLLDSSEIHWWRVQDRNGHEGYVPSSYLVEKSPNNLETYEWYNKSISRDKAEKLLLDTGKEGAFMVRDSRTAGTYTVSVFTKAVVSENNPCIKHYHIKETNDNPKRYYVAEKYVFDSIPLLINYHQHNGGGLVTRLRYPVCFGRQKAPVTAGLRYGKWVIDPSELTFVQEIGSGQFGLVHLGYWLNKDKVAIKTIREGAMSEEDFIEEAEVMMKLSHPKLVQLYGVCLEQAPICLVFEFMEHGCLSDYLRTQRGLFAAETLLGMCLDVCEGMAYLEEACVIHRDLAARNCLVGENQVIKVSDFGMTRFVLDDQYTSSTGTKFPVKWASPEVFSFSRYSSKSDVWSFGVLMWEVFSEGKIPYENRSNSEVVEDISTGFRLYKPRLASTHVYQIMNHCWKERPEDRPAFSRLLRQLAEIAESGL

[4] = target: kinases (KINOMEscan panel) (Homo sapiens, UniProt Q96SB4); details: kinase SRPK1; NEW KINOMEscan
[5] = target: kinases (KINOMEscan panel) (Homo sapiens, UniProt O43293); details: DAPK3; NEW KINOMEscan
[6] = target: kinases (KINOMEscan panel) (Homo sapiens, UniProt P09769); details: FGR; NEW KINOMEscan
[7] = target: kinases (KINOMEscan panel) (Homo sapiens, UniProt Q07002); details: kinase CDK18; NEW KINOMEscan
[8] = target: kinases (KINOMEscan panel) (Homo sapiens, UniProt Q8IVW4); details: kinase CDKL3; NEW KINOMEscan
[9] = target: kinases (KINOMEscan panel) (Homo sapiens, UniProt P42336, M1043I); details: NEW KINOMEscan
[10] = target: kinases (KINOMEscan panel) (Homo sapiens, UniProt Q9Y4K4); details: kinase MAP4K5; NEW KINOMEscan
[11] = target: T2, kinases (KINOMEscan panel) (Homo sapiens, UniProt Q8NE63); details: kinase HIPK4; NEW KINOMEscan
T2 sequence (Q8NE63 1-616): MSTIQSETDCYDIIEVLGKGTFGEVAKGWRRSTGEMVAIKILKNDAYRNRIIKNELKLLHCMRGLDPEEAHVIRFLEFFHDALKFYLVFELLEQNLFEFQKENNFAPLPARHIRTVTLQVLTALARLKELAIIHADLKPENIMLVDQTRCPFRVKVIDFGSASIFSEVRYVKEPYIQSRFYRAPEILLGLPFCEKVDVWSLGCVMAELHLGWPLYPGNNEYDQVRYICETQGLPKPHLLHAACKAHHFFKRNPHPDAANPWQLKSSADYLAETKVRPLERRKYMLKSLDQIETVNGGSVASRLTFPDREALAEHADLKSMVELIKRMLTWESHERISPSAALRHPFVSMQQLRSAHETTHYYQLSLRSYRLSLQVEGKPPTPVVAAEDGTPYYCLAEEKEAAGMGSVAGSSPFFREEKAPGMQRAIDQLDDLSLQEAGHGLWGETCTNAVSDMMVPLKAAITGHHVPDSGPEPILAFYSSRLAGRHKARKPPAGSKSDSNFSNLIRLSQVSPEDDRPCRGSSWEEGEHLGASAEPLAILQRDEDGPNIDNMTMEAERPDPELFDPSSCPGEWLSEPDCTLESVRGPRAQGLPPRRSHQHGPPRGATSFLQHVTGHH

[12] = target: T3, kinases (KINOMEscan panel) (Homo sapiens, UniProt Q13237); details: PRKG2; NEW KINOMEscan
T3 sequence (Q13237 1-762): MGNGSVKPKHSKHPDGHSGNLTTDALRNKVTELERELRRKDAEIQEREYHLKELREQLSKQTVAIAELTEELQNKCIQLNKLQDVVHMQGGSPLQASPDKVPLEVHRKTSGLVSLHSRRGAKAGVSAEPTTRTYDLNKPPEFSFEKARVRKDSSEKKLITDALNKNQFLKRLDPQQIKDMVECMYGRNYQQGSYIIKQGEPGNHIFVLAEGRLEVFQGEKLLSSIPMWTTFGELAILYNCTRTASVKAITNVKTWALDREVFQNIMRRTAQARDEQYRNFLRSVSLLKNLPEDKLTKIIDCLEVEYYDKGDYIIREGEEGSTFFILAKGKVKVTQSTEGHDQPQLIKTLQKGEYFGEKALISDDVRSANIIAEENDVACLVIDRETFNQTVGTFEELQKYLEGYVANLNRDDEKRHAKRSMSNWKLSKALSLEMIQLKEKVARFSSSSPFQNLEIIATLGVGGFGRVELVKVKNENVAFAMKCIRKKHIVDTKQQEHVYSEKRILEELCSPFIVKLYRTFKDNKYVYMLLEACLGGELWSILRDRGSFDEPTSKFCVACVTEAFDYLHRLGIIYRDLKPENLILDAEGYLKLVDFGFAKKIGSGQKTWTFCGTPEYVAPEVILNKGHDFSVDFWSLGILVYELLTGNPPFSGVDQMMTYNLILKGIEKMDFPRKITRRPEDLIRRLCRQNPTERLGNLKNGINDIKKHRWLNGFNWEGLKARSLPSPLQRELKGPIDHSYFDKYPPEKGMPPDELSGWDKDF

[13] = target: kinases (KINOMEscan panel) (Homo sapiens, UniProt Q9Y243); details: kinase AKT3; NEW KINOMEscan
[14] = target: kinases (KINOMEscan panel) (Homo sapiens, UniProt Q13627); details: NEW KINOMEscan

Chain of kinases (KINOMEscan panel) (Homo sapiens, UniProt P09769) (P09769 whole entry): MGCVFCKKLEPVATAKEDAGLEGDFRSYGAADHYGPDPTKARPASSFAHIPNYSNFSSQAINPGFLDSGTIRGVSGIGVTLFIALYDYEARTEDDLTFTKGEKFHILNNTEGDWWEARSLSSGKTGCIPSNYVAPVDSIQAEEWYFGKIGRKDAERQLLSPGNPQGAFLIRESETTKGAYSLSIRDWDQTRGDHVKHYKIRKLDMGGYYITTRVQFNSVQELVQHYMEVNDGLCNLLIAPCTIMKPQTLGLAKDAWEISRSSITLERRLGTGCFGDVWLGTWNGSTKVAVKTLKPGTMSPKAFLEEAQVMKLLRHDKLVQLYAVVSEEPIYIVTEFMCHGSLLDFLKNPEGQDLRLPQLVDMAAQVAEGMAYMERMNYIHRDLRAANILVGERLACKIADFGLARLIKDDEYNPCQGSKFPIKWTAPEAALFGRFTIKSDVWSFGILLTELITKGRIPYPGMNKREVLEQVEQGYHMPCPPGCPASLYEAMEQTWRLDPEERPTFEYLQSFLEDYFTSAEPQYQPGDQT
Chain of kinases (KINOMEscan panel) (Homo sapiens, UniProt Q96SB4) (Q96SB4 whole entry): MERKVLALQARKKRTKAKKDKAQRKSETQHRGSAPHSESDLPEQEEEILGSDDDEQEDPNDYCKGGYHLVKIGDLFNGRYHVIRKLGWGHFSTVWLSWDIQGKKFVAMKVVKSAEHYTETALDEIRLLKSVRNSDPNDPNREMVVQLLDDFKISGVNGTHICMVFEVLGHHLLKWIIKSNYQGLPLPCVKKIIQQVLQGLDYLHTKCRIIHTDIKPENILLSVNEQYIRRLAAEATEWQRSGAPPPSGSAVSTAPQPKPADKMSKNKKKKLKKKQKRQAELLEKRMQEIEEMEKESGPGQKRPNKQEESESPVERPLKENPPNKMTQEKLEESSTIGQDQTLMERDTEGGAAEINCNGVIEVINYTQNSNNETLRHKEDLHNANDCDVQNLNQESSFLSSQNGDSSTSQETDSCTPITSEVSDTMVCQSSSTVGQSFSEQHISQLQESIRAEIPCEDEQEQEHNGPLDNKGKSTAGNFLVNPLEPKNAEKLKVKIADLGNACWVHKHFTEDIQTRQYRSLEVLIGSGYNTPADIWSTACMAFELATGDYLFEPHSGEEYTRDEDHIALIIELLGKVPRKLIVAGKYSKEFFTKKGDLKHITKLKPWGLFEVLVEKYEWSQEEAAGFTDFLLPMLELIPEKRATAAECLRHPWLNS
Chain of kinases (KINOMEscan panel) (Homo sapiens, UniProt P10721, D816H) (P10721 26-976 D816H): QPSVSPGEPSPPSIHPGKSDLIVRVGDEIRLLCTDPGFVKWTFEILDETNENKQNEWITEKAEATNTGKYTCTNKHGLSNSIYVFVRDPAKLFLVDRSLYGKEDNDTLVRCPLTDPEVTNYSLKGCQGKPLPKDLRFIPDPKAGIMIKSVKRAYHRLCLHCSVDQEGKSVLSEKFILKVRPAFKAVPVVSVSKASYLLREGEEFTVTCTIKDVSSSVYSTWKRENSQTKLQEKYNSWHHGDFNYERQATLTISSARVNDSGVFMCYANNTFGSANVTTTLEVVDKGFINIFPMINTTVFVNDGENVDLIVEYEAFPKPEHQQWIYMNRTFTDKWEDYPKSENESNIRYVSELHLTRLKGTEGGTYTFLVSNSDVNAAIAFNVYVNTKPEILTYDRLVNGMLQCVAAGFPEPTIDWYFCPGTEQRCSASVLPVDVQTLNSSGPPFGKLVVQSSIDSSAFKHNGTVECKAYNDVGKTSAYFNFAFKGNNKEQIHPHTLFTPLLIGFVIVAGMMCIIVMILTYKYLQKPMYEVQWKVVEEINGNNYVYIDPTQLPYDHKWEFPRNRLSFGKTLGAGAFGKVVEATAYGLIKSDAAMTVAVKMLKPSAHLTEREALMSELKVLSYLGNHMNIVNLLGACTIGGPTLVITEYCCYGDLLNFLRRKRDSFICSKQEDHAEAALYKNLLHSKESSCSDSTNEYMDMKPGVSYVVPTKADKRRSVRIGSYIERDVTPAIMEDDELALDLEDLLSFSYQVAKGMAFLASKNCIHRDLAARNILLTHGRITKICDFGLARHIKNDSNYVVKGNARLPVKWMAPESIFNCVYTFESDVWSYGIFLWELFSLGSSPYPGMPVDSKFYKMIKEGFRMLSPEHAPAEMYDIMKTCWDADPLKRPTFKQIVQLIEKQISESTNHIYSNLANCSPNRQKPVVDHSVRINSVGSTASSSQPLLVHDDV
Chain of kinases (KINOMEscan panel) (Homo sapiens, UniProt P04049) (P04049 whole entry): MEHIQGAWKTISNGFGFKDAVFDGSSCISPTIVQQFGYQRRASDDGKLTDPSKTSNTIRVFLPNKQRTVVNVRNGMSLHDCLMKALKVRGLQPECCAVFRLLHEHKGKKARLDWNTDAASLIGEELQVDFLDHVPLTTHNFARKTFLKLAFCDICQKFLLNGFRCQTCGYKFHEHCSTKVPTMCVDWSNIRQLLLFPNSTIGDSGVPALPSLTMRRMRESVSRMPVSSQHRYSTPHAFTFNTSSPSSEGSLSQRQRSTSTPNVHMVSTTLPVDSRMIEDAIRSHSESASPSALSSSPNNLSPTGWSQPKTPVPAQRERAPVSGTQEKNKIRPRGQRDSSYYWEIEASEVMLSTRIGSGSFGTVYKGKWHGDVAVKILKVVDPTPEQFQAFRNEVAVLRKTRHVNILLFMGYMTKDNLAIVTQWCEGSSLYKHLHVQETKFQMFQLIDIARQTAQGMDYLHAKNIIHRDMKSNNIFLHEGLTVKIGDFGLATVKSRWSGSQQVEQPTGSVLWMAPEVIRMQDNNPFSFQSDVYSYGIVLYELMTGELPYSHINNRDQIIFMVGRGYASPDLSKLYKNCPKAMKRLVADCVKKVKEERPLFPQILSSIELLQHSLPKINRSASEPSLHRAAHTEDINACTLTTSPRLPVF
Chain of kinases (KINOMEscan panel) (Homo sapiens, UniProt Q9Y4K4) (Q9Y4K4 whole entry): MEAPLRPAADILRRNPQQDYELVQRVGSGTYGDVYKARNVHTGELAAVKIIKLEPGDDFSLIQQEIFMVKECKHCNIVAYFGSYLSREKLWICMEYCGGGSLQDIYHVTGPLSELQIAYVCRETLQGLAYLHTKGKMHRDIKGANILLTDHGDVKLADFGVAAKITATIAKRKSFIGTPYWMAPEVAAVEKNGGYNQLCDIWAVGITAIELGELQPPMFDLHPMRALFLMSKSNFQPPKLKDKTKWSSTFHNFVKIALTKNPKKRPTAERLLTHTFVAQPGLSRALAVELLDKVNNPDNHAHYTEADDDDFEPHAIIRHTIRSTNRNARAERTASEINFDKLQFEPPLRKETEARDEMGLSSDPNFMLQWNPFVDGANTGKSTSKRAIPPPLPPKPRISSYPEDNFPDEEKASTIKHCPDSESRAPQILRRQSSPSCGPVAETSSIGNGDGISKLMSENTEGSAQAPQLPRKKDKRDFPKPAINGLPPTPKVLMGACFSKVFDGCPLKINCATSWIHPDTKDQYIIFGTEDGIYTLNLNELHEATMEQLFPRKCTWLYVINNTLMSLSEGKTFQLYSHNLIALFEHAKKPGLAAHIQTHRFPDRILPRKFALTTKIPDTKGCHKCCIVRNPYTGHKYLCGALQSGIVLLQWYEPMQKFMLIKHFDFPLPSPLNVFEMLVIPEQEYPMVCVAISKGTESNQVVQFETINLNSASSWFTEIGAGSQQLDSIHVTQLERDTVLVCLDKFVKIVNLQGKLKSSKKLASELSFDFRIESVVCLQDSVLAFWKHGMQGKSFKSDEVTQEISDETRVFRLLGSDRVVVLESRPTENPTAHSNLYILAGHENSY
Chain of kinases (KINOMEscan panel) (Homo sapiens, UniProt P42336, M1043I) (P42336 whole entry M1043I): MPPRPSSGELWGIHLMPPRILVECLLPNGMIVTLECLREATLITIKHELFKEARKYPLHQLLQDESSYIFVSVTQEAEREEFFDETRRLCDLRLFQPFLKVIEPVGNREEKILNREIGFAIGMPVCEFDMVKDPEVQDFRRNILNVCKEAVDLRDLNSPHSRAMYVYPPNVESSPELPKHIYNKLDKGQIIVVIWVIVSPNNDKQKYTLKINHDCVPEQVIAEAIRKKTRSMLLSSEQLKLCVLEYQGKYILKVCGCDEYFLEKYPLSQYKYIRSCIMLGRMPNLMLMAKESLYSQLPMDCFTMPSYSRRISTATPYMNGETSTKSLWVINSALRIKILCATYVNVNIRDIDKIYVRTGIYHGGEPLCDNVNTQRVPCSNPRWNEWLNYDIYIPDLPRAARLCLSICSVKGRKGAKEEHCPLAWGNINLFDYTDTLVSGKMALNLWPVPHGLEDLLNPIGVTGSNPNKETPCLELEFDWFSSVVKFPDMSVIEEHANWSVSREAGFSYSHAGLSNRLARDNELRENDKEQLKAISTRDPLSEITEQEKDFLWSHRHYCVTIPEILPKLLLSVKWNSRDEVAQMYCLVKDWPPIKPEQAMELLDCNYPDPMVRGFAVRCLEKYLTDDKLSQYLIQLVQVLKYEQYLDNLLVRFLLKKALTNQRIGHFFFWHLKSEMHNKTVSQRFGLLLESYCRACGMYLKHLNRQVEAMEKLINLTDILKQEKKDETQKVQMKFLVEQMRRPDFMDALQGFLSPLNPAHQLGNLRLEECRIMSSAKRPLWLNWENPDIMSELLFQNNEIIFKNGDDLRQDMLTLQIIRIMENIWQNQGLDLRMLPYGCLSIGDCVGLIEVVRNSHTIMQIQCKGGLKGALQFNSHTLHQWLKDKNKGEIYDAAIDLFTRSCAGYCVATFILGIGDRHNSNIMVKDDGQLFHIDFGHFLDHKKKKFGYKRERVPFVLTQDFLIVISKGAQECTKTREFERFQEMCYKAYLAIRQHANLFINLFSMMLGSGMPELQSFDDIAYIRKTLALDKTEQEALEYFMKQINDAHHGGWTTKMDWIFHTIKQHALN

| SMILES | KINOMEscan KIT(D816H) [1] | KINOMEscan RAF1 [2] | KINOMEscan ITK [3] | KINOMEscan SRPK1 [4] | KINOMEscan DAPK3 [5] | KINOMEscan FGR [6] | KINOMEscan CDK18 [7] | KINOMEscan CDKL3 [8] | KINOMEscan PIK3CA(M1043I) [9] | KINOMEscan MAP4K5 [10] | KINOMEscan HIPK4 [11] | KINOMEscan PRKG2 [12] | KINOMEscan AKT3 [13] | KINOMEscan DYRK1A [14] |
| --- | --- | --- | --- | --- | --- | --- | --- | --- | --- | --- | --- | --- | --- | --- |
| Cc1cccc(-c2nc(Nc3ccc4nn(C)cc4c3)c3ccccc3n2)n1 [NK167] | 13 | 4 | 0 | 2 | 0 | 0 | 0 | 12 | 17 | 0 | 7 | 5 | 0 | 0 |
| Cc1cccc(-c2nc(N(C)c3ccc4ncsc4c3)c3ccccc3n2)n1 [NK-161] | 16 | 0 | 14 | 7 | 0 | 0 | 0 | 0 | 10 | 0 | 25 | 0 | 0 | 20 |

From PMC9851200, “Multiparameter phenotypic screening for endogenous TFEB and TFE3 translocation identifies novel chemical series modulating lysosome function” (Autophagy, 2022)
